Reference: paper PMC6493465 (Oncotarget, 2019)
Where a name gives a salt, the structure may show the parent alone. Read-outs that look alike come from different tables or passages of the source.

What was measured:
[1] = system: MCL-1, BCL2L10, survivin and cPARP in MOLM-13 cells; experiment: Western blot analysis of anti-apoptotic protein expression, MOLM-13; type: cell-based, human; conditions: MOLM-13, 24-hour treatment; gilteritinib 30 nM, AraC 100 nM, IDR 3 nM, Aza 1000 nM
Procedure: Cell lysates were prepared in radioimmunoprecipitation assay buffer (Thermo Fisher Scientific Inc., Rockford, IL) supplemented with phosphatase (Thermo Fisher Scientific Inc.) and protease inhibitors (Merck, Billerica, MA), electrophoresed on 4%–15% gels, and subsequently transferred to polyvinylidene difluoride membranes. The membranes were blocked using Blocking One (Nacalai Tesque Inc., Kyoto, Japan) for 1 hour and then incubated overnight with primary antibodies to MCL-1, BCL210, cPARP (all from Cell Signaling Technology, Danvers, MA, USA), survivin (R&D Systems, Inc., Minneapolis, MN), and α-actin (MilliporeSigma, Burlington, MA). The membranes were washed with TBS Tween-20 (TBS-T) buffer and incubated with appropriate horseradish peroxidase-linked secondary antibodies (Cell Signaling Technology Japan K.K.) for 1 hour at room temperature. After washing the membranes in TBS-T buffer, enhanced chemiluminescence Western Blotting Detection Reagent ECL-prime (GE Healthcare, Fairfield, CT) was applied. Signals were detected with a charge-coupled device camera (ImageQuant LAS4000; GE Healthcare); signal intensity was quantified using ImageQuant™ TL software (GE Healthcare).

[2] = Pharmacokinetic assays (plasma and tumor) in nude mice xenografted with MV4-11 cells; type: in vivo, mouse; conditions: for Cmax / Tmax / AUC / half-life / clearance / Vd: nude, mouse; for AUC: read-out: AUC24; for concentration in tumor fraction versus plasma fraction: xenografted mice; for clearance: read-out: CLtot (converted); for Vd: read-out: Vss
Procedure: Plasma samples were prepared by centrifugation (n=3 per group; one sample in the combination group was excluded due to improper handling). […] These assays were conducted by Astellas Research Technologies Co., Ltd. under the guidance of Analysis & Pharmacokinetics Research Laboratories, Astellas Pharma, Inc., or by Nemoto Science Co., Ltd. (Ibaraki, Japan). […] Body weight and tumor assessments obtained on with MV4-11 cells received one of the following Day −1 were designated as Day 0 (baseline) measurements. combination treatments: 1. […] The percent tumor regression was calculated using the formula: […]

MOLM-13 cells = experiment: Annexin-V staining (apoptosis), MOLM-13; type: cell-based, human; conditions: single agent: IDR 3 nM, AraC 100 nM or Aza 1000 nM, 48 hours
Procedure: MV4-11 cells were seeded in 12-well plates at a concentration of 2 × 10^5 cells/well and cultured overnight. […] MOLM-13 cells were seeded in 12-well plates at a concentration of 1 × 10^5 cells/well and cultured overnight.
Cells were harvested and incubated with Guava® Nexin Reagent (Merck Millipore Corporation, Billerica, MA). Annexin-V-positive cells were assessed using a Guava® PCA microcytometer (Merck Millipore Corporation); the percentage of annexin-V-positive cells (2000 cells per sample) was analyzed using CytoSoft™ software (Merck Millipore Corporation). Mean percentages of annexin-V-positive cells were derived from three independent experiments.

[3] = plasma, ip, 50 mg/kg, AraC in plasma, gilteritinib 3, AraC 50, IDR 0.5 mg/kg
[4] = plasma, ip, AraC in plasma, gilteritinib 0, AraC 50, IDR 0.5 mg/kg
[5] = tumor, ip, 50 mg/kg, AraC in tumor, gilteritinib 3, AraC 50, IDR 0.5 mg/kg
[6] = tumor, ip, AraC in tumor, gilteritinib 0, AraC 50, IDR 0.5 mg/kg
[7] = idarubicin in tumor, with versus without gilteritinib
[8] = tumor, iv, 0.5 mg/kg, idarubicin in tumor, gilteritinib 0, AraC 50, IDR 0.5 mg/kg
[9] = tumor, iv, idarubicin in tumor, gilteritinib 3, AraC 50, IDR 0.5 mg/kg

With Nc1ccn([C@@H]2O[C@H](CO)[C@@H](O)[C@@H]2O)c(=O)n1 [AraC, Cytarabine] the “expression of MCL-1, BCL2L10, and survivin” value [1] was “little effect”, the AUC24 ratio ([2]; AraC in plasma, with versus without gilteritinib) was 0.32 and the AUC24 ([2]; AraC in tumor, gilteritinib 0, AraC 50, IDR 0.5 mg/kg) was 7968 ng·h/g. The AUC24 ratio ([2]; AraC in tumor, with versus without gilteritinib) was 1.13, the Cmax [2, 3] was 18000 ng/mL and the Tmax [2, 3] was 0.083 h. The AUC [2, 3] was 9960 ng·h/mL, the Cmax [2, 4] was 28700 ng/mL and the Tmax [2, 4] was 0.25 h. The AUC [2, 4] was 31600 ng·h/mL, the Cmax [2, 5] was 1060 ng/g and the Tmax [2, 5] was 2 h. For the same molecule, the Cmax [2, 6] was 904 ng/g, the Tmax [2, 6] was 2 h and the “concentration in tumor fraction versus plasma fraction” value [2] was “higher in the plasma fraction”. For the same molecule, the “mean percentage of annexin V-positive cells” value (MOLM-13 cells) was 21.9%.
In the case of CC(=O)[C@]1(O)Cc2c(O)c3c(c(O)c2[C@@H](O[C@H]2C[C@H](N)[C@H](O)[C@H](C)O2)C1)C(=O)c1ccccc1C3=O [IDR, Idarubicin hydrochloride], the “expression of MCL-1, BCL2L10, and survivin” value [1] is reported as “little effect”, the “AUC24 ratio” value ([2]; idarubicin in plasma, with versus without gilteritinib) is reported as 1.23 and the AUC24 ([2]; idarubicin in tumor, gilteritinib 0, AraC 50, IDR 0.5 mg/kg) is reported as 4491 ng·h/g. For the same molecule, the AUC24 ([2]; idarubicin in tumor, gilteritinib 3, AraC 50, IDR 0.5 mg/kg) was 4855 ng·h/g, the “AUC24 ratio” value [2, 7] was 1.08 and the Cmax ratio [2, 7] was 1.11. It also gave a half-life ([2]; plasma, iv) of 2.24 h, a half-life ([2]; plasma, iv, 0.5 mg/kg) of 1.49 h and an AUC ([2]; plasma, iv, 0.5 mg/kg, idarubicin in plasma, gilteritinib 0, AraC 50, IDR 0.5 mg/kg) of 63.3 ng·h/mL. For the same molecule, the clearance ([2]; plasma, iv, 0.5 mg/kg) was 217 mL/min/kg, the Vd ([2]; plasma, iv, 0.5 mg/kg) was 26.7 L/kg and the AUC ([2]; plasma, iv, idarubicin in plasma, gilteritinib 3, AraC 50, IDR 0.5 mg/kg) was 77.9 ng·h/mL. It also gave a clearance ([2]; plasma, iv) of 172 mL/min/kg, a Vd ([2]; plasma, iv) of 31.5 L/kg and a Cmax [2, 8] of 204 ng/g. The Tmax [2, 8] was 4 h, the Cmax [2, 9] was 226 ng/g and the Tmax [2, 9] was 24 h. For the same molecule, the “concentration in tumor fraction versus plasma fraction” value [2] was “higher in the tumor fraction” and the “mean percentage of annexin V-positive cells” value (MOLM-13 cells) was 36.6%.
